Literature values in patent US20260256858A1, “Amanita Muscaria Mushroom Extracts and Products, and Improved Processes for Producing Extracts of Amanita Muscaria Mushrooms at Kilogram Scale” (priority 2023, published 2026).

Legend:
[1] = after ingestion of Amanita mushrooms
[2] = IV injection, 8 μmol/kg, 150 g rat

Compound | detection in urine after ingestion [1] | brain regions with the highest muscimol concentration (IV injection of 3H-muscimol, 8 μmol/kg, rat) | amount of the dose injected that crossed to the brain [2] | muscimol concentration in brain [2] | time until blood concentration was below limits of detection (after intravenous injection, rat) | distribution in corneum stratum compared to hypothalamus, hippocampus and cortex (intracerebroventricular injection, 1200 nmol/kg, rat) | tolerability (adverse effects or toxicity) (intravenous injection of muscimol, 8 μmol/kg, rat)
N[C@H](C(=O)O)c1cc(=O)[nH]o1 [ibotenic acid, (S)-2-amino-2-(3-hydroxyisoxazol-5-yl) acetic acid] | detected within an hour after ingestion |  |  |  |  |  | 
NCc1cc(=O)[nH]o1 [muscimol, 5-(aminomethyl)-1,2-oxazol-3 (2H)-one] | detected within an hour after ingestion | the substantia nigra, the colliculi and the hypothalamus | approximately 0.02% | approximately 200 pmol/g tissue | ≤ 180 min | approximately 2 times higher | well-tolerated
